One data set addresses CFTR (Homo sapiens, UniProt P13569). The experiment in a line: clinical. The procedure:
Twelve healthy adult volunteers aged 22 to 59 years of both genders were tested. The volunteers were healthy and without any known CFTR protein mutations.
In addition, the venous acid-base status was checked.
The subjects then drank 200 mL of tap water. In addition, the venous acid-base status was checked.
The subjects then drank 200 mL of tap water.

In data set [1] the target is CFTR (homozygote mutation ΔF508) (Homo sapiens, UniProt P13569, DEL508-508). Kind of data set: CF urine test (oral bicarbonate gastric load) in adult CF patients, before and after CFTR modulator drug.
Protocol: After 1 hr. urine samples were collected and the participant drank 200 ml of tap water. One hour later, urine samples were collected again and the participant drank further 200 ml of tap water. After three hours from the baseline the final urine sample were collected and the participants drank another 200 ml of tap water.
Nine adult CF patients aged 19 to 45 of both genders with the homozygote mutation ΔF508 were signed up for this test.
Three of the adult CF patients were treated with Orkambi® (400 mg lumacaftor/200 mg ivacaftor twice a day) for four weeks before testing the CF patients for a second time. These included patients of both genders between the age of 19 and 45.
Six of the adult CF patients were treated with Symkevi® (100 mg tezacaftor and 150 mg ivacaftor in the morning and 150 mg ivacaftor in the evening) for four weeks before testing the CF patients for a second time. These included patients of both genders between the age of 20 and 40.
Five ml of urine were given into a 250 ml glass flask.
A two-tailed paired t-test was used to test for significance. A p-value≤0.5 was chosen to represent significance.
At t=1 hr, the subjects were to void the first sample. […] The subjects then drank 200 mL of tap water. In addition, the venous acid-base status was checked.
At t=2 hrs, the subjects were to void the second sample. […] The subjects then drank 200 mL of tap water.
At t=3 hrs, the subjects were to void the third sample. […] The subjects then drank 200 mL of tap water.
Data set [2] concerns CFTR wild type, CFTR knock out and pendrin knock-out mice. As to conditions: WT mice; gavage 60 μmoles NaHCO3/25 g bodyweight; cumulative sample after 3 hours.
Protocol: The experiments were performed in littermate mice bred from heterozygotes. Mice of both genders were used at an approximate age of 2 to 4 months.
The Pendrin KO mouse was produced by insertion of a neo-cassette replacing exon 8 in the Scl26a4 gene, leading to loss of pendrin expression as described in (Everett et al. 2001). It was purchased from The Jackson Laboratory, JAX stock #018424.
The global CFTR (CFTRG) KO mouse (CFTR S489X-; FABP-hCFTR) was purchased from The Jackson Laboratory, JAX stock #002364. This is a transgenic global CFTR KO mouse strain with expression of human CFTR (hCFTR) under the promoter activity of rat fatty acid binding protein 2, intestinal (Fabp2) promoter, which corrects the otherwise lethal intestinal phenotype in CFTR KO mice (Zhou et al. 1994).
Awake mice (animals as described under section A.) were manually restrained and a gavage needle was inserted into their stomach. […] Mice were then placed in metabolic cages and their urine collected for further measurement.
Urine was sampled and accumulated for 3 hr before measurement.
The subject of data set [3] is Pendrin WT and KO mice. Kind of data set: Secretin-induced urine alkalisation and urine HCO3− excretion in anaesthetized pendrin WT/KO mice. The format is in vivo, mouse.
Data set [4] deals with tubule specific CFTR (CFTR-TS) WT and KO mice. Kind of data set: Secretin-induced urine alkalisation and urine HCO3− excretion in tubule specific CFTR WT/KO mice. The format is in vivo, mouse. An excerpt:
The Renal tubule specific CFTR (CFTRTS) KO mouse was produced in the laboratory of Dr. Kunzelmann and Dr. Schreiber in Regensburg/Germany and performed in compliance with the guidelines for the welfare of experimental animals issued by the Federal Government of Germany. C57BL6/J CFTR fl10 mice (Hodges et al. 2008) were bred in a C57Bl/6J background generated by the Cre/loxP-system with tissue specific Cre-recombinase expression from the Pax8 locus (Kos 2004; Bouchard et al. 2004).
(§1) Induction of anaesthesia was performed with i.p. injection of […] of a ketamine-xylazine mix (10 mg/ml and 1 mg/ml). An i.v. access was obtained by cannulation of one tail vein and the animals were kept in anaesthesia by a continuous rate infusion (CRI) corresponding to half of the induction dose pr. hour. Mice were infused with a solution containing 145 mM NaCl at pH 7.4 with a perfusion rate of 0.1 ml h^−1 via a syringe pump (Model 33 Twin syringe pump, Harvard Apparatus, USA).
(§2) Bladder catheterization was introduced and urine was collected every 5 minutes. Urinary pH was measured continuously throughout the experiment by placement of a micro pH electrode (pH-200, Unisense, Aarhus, DK) in the outflow of the catheter and the reference electrode was placed into the suprapubic operation wound (see FIG. 7A). Following a 30-min. control period, mice were injected intraperitoneally with either secretin (10 μg/25 g BW) or saline.
(§3) The urine was collected and pooled for 30 minutes allowing measurement of mean [HCO3^−] in the time periods 0-30, 30-60 and 60-90 after starting the experiment. In experiments with too low urine output, urine was pooled to allow analysis of [HCO3^−] before and after secretin application. Measurements were performed by a Corning 960 analyser (Savory et al. 1978) and calibrated to small volume samples of 50 μl or alternatively by a custom built infrared CO2-sensor based system for smaller volume samples (Trepiccione et al. 2017) (10-40 μl).
(§4) All values are presented as mean values ±standard error of mean (SEM). Due to a low number of observations in each series, n=7 in most, we were not able to determine whether the data followed a Gaussian distribution. Therefore, two-tailed Wilcoxon matched pairs signed rank test, in paired data, and two-tailed Mann-Whitney test, in unpaired data, were performed to test for significance.

Data set [5] deals with Pendrin WT and KO mice. The experiment in a line: Secretin-induced urine alkalisation and urine HCO3− excretion in anaesthetized pendrin WT/KO mice. The format is in vivo, mouse. The procedure:
as §1, §2, §3, §4
The source holds these as a separate data set.

For data set [6], the system named is global CFTR WT and KO mice. Kind of data set: Secretin-induced urine alkalisation and urine HCO3− excretion in global CFTR WT/KO mice. Type of data set: in vivo, mouse. The procedure: as §1, §2, §3, §4
The mark [7] stands for this setting: both, human, in vivo, po, 79 mg/kg.
The mark [8] stands for this setting: 6 CF patients, pre-symkevi, oral bicarbonate load.

What is called Cmax is the maximum level reached in the sampled fluid or tissue. As usually defined, the Tmax is the time from dosing to the highest level.

Sequence of CFTR (homozygote mutation ΔF508) (P13569 with tags, fused parts or gaps DEL508-508): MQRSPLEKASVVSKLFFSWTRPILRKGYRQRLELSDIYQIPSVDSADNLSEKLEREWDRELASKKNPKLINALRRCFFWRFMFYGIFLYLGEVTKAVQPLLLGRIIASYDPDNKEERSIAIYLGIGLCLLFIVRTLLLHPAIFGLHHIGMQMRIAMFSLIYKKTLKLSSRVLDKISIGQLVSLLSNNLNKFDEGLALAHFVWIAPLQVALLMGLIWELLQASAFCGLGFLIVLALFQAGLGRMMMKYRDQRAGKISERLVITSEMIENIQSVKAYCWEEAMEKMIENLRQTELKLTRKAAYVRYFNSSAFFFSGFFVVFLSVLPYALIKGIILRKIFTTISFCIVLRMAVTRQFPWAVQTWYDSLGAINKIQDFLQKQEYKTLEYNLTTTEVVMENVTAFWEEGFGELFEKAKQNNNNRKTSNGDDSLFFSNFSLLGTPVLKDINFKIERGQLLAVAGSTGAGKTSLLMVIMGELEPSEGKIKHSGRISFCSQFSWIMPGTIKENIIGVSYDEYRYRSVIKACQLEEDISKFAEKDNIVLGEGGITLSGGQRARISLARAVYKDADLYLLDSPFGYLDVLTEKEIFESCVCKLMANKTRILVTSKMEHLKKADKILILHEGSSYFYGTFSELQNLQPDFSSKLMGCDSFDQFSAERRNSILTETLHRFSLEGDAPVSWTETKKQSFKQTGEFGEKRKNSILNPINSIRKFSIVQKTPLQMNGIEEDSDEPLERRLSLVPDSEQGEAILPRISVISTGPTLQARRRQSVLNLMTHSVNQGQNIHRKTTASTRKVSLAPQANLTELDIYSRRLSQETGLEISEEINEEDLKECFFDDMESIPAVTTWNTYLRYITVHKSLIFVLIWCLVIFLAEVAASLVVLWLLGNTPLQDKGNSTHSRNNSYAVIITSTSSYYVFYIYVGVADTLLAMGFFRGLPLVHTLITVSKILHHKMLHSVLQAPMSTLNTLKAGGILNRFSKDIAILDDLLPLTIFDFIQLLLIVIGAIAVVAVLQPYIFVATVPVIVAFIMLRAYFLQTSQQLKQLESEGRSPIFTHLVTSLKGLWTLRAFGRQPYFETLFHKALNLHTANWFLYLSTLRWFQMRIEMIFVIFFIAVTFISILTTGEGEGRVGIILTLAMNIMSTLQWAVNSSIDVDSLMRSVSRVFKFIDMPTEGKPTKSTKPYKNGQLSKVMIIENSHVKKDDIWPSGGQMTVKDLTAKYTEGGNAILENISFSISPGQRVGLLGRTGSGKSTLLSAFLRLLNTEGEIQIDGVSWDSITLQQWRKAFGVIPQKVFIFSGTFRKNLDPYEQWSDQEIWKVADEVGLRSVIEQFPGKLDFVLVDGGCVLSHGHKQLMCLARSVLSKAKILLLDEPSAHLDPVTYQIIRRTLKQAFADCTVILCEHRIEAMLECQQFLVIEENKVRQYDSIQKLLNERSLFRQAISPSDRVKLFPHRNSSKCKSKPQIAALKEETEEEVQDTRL
Sequence of CFTR (P13569 whole entry): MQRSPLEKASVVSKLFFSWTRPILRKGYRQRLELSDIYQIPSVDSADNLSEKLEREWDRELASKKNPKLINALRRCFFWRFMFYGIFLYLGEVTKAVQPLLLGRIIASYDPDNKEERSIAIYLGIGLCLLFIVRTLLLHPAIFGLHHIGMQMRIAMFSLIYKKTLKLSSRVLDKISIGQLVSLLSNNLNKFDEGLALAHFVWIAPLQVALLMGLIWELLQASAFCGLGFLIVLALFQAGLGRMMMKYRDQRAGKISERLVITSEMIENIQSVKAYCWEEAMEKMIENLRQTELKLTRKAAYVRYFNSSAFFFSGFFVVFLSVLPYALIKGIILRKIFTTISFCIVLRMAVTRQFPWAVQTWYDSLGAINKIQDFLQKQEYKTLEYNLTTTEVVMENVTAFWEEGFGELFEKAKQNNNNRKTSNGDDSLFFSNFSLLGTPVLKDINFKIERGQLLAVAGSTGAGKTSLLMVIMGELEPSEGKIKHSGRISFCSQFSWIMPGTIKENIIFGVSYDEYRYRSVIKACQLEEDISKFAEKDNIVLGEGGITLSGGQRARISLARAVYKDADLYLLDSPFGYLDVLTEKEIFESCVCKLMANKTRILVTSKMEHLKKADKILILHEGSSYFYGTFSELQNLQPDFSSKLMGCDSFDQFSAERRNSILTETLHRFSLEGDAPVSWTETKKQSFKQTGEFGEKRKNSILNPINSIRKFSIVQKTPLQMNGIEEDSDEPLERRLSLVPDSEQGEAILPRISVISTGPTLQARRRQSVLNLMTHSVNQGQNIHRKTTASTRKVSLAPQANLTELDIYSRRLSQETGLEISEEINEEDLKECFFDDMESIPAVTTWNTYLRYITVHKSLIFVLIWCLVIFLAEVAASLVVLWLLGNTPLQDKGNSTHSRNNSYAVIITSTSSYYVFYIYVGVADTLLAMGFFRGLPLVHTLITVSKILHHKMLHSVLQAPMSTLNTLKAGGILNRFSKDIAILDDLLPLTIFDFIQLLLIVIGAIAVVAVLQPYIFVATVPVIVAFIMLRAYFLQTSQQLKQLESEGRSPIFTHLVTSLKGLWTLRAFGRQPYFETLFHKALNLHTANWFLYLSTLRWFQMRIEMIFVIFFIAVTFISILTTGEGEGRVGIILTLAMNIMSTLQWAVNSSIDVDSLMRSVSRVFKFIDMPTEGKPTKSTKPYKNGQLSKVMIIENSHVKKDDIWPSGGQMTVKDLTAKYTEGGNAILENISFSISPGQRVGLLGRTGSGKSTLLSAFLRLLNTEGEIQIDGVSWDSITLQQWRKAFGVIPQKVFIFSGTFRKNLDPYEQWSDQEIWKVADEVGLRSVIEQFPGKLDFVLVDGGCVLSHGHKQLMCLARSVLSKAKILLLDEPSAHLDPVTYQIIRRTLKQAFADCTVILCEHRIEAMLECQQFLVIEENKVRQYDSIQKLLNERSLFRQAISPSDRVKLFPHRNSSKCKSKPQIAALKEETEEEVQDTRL

With `O=C(O)O` [bicarbonate, NaHCO3], the Cmax fell in the range of 45000 to 65000 µM at CFTR (setting [7]) and 14000 to 28000 µM in data set [1] (setting [7]). Also, the Tmax on CFTR (setting [7]) came to 2 h; in data set [1] (both, human, in vivo, po, 79 mg/kg BW), 2 h. Moreover, the “AUC0-3 of excreted bicarbonate” value is given as 85-123 mmol bicarbonate *t/L on CFTR (healthy controls, oral 79 mg/kg BW NaHCO3, FIG. 5E); 22-45 mmol bicarbonate*t/L in data set [1] (setting [8]); 14-58 mmol bicarbonate *t/L in data set [1] (CF patients before treatment with Orkambi, oral bicarbonate load). In data set [1] (setting [8]), the “peak value of urine bicarbonate (t=2 hrs)” value fell in the range of 11 to 28 mM. Moreover, the “urine bicarbonate concentration and urine pH” value in data set [2] is on record as “found to increase”.

Turning to secretin, in the data set on Pendrin WT and KO mice [3] (dose of 0.1 μg i.p.), the pHu change entry is on record as “significant increase”. For the same compound, the “pHu change with dose” value in the data set with Pendrin WT and KO mice [3] (doses of 1, 5 and 10 μg i.p.) was “increasing pHu alkalisations”. Besides, the “pHu effect vs control experiments” value in data set [4] (CFTR-TS KO mice, FIG. 11B) is given as “no significant effect”. Also, the “urine [HCO3−] and urine HCO3− excretion rate” value in data set [4] (CFTRTS KO mice) was “No significant secretin-induced differences”. Further, the “peak mean urinary alkalisation” value in data set [4] (tubule specific CFTR WT mice, 10 μg/25 g BW i.p., n=7, FIG. 11A) stood at 0.6518±0.11; in the data set with Pendrin WT and KO mice [5] (pendrin WT mice, 10 μg/25 g BW i.p., n=7, FIG. 9A), 0.397±0.1 pH units; in data set [6] (global CFTR WT mice, 10 μg/25 g BW i.p., n=6, FIG. 10A) it was 0.53±0.24 pH units. Also, in data set [4] (tubule specific CFTR WT mice, 60 minutes after secretin treatment, data not shown), the “urine HCO3− excretion rate, mean difference vs baseline” value came out at 5.623 ± 2.2 nmol/h/kg. Moreover, the “urine [HCO3−] change after secretin administration” value in data set [4] (tubule specific CFTR WT mice, highest in first 30 minutes) is given as “pronounced increase”. The pHu alkalisation result with Pendrin WT and KO mice [5] (pendrin KO mice, 10 μg/25 g BW i.p., FIG. 9B) is reported as “no significant pHu alkalisations”. Further, in the data set on Pendrin WT and KO mice [5] (pendrin KO mice, data not shown), the “urinary HCO3− excretion vs vehicle” value is reported as “No differences”. The “urinary [HCO3−] vs vehicle” value in the data set on Pendrin WT and KO mice [5] (pendrin KO mice, n=7, FIG. 9D) is “No differences”. Moreover, the “late pHu effect” value in the data set with Pendrin WT and KO mice [5] (pendrin KO mice, starting some 20 minutes post-injection) was “urinary acidification”. In addition, the “peak pHu increase” value in the data set with Pendrin WT and KO mice [5] (pendrin WT mice, 10 μg/25 g BW secretin i.p., FIG. 8C) was around 0.38 units. Also, the “urinary [HCO3−]” value with Pendrin WT and KO mice [5] (pendrin WT mice, 60 minutes following injection, vehicle 0.1697 ±0.1 mM, FIG. 9C) is 1.08 ± 0.3 mM. Besides, in the data set with Pendrin WT and KO mice [5] (pendrin WT mice, 60 minutes post secretin injection, vehicle 1.18±0.57), the “urine HCO3− excretion rate” value came to 5.61±2.06 nmol/h/g BW. Further, in data set [6] (global CFTR KO mice, at any point during the experiment, FIG. 10D), the “HCO3− excretion rate and urine [HCO3−] vs starting or control” value is listed as “No significant differences”. Further, the “peak difference of pHu vs pH prior to treatment” value in data set [6] (global CFTR KO mice, peak 20 min post secretin, n=7, not differing from vehicle treated KO mice) stood at 0.13 pH units. For the same compound, the “urinary [HCO3−] increase vs control group (Δ30 minutes)” value in data set [6] (global CFTR WT mice, FIG. 10C) stood at 3.02 ± 1.06 mM. The “ΔHCO3− excretion rate vs control” value in data set [6] (global CFTR WT mice, after 60 min, not reaching significance (p=0.09)) was 5.55±3.25 nmol/h/g BW.

Source of the values: patent US20220206013A1, “CYSTIC FIBROSIS URINE TEST” (Aarhus Universitet, priority 2019, published 2022).
